Columns and labels:
peanut = test: Test G preemergence/postemergence greenhouse plant response rating 0 to 100; type: in vivo, Arachis hypoagaea; settings: 0 to 100 scale
Source text: (§1) Seeds, rhizomes, or plant parts of alfalfa (Medicago ativa), annual bluegrass (Poa annua), bermudagrass (Cynodon dactylon), broadleaf signalgrass (Brachiaria plantaginea), common purslane (Portulaca oleracea), common ragweed (Ambrosia elatior), […] (Paspalum dilatatum), goosegrass (Eleusine indica), guineagrass (Panicum maximum), […] exaltata), johnsongrass (Sorghum halepense), large crabgrass (Digitaria sanguinalis), peanut (Arachis hypoagaea), pitted morningglory (Ipomoea lacunosa), purple nutsedge (Cyperus rotundus), sandbur (Cenchrus echinatus), smooth crabgrass (Digitaria ischaemum) and yellow nutsedge (Cyperus esculentus) were planted into greenhouse pots containing greenhouse planting medium. Each pot contained only one plant species. The test compound was dissolved in a non-phytotoxic solvent and applied preemergence and/or postemergence to the plants. Preemergence applications were made within one day of planting the seeds or plant parts. Postemergence applications were applied when the plants were in the two to four leaf stage (three to twenty cm). Test chemicals were dissolved in a non-phytotoxic solvent and applied preemergence and postemergence to the plants. Untreated control plants and treated plants were placed in the greenhouse and visually evaluated for injury at 13 to 21 days after herbicide application. […] A dash (-) response indicates no test result.

soybean = test: Test B preemergence/postemergence greenhouse plant response rating 0 to 10; type: in vivo, Glycine max; settings: 0 to 10 scale
Method in brief: (§2)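 Test chemicals were sprayed onto freshly planted seed and, concurrently, onto young plants between the one and four leaf stage. After a twelve- to sixteen-day greenhouse period, each species was visually compared with untreated controls.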

wild oat = test: as above; type: in vivo, Avena fatua; settings: 0 to 10 scale
Method in brief: as §2

sugar beet = test: Test C preemergence/postemergence greenhouse plant response rating 0 to 100; type: in vivo, Beta vulgaris; settings: for Plant response rating, Sugar beet: 0 to 100 scale
Method in brief: (§3)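 Compounds in non-phytotoxic solvent went onto sandy loam before emergence (seeded one day earlier) or onto plants at the one-to-four leaf stage. Duck salad was treated via flood water (~2.5 cm, maintained) over silt loam.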

sorghum = test: as above; type: in vivo, Sorghum bicolor; settings: for Plant response rating, Sorghum: 0 to 100 scale
Method in brief: as §3

barnyardgrass = test: Test C flood test plant response rating 0 to 100; type: in vivo, Echinochloa crus-galli; settings: for Plant response rating (0 to 100), Barnyardgrass: under POSTEMERGENCE head (flood test species); for Plant response rating, Barnyardgrass: flood test species listed under POSTEMERGENCE, 0 to 100 scale
Method in brief: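 Compounds in non-phytotoxic solvent applied preemergence to sandy loam one day after planting, postemergence at the 1–4 leaf stage, or to ~2.5 cm floodwater over silt loam.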

wheat = test: Test B preemergence/postemergence greenhouse plant response rating 0 to 10; type: in vivo, Triticum aestivum; settings: 0 to 10 scale
Method in brief: as §2

downy brome = test: Test C preemergence/postemergence greenhouse plant response rating 0 to 100; type: in vivo, Bromus tectorum; settings: for Plant response rating Downy Brome: 0 to 100 scale
Method in brief: as §3

wild buckwheat [1] = test: as above; type: in vivo, Polygonum convolvulus; settings: for Plant response rating, Wild buckwheat: 0 to 100 scale
Method in brief: as §3

lambsquarters = test: Test B preemergence/postemergence greenhouse plant response rating 0 to 10; type: in vivo, Chenopodium album; settings: 0 to 10 scale
Method in brief: as §2

blackgrass = test: Test C preemergence/postemergence greenhouse plant response rating 0 to 100; type: in vivo, Alopecurus myosuroides; settings: for Plant response rating, Blackgrass: 0 to 100 scale
Method in brief: as §3

rice = test: Test B preemergence/postemergence greenhouse plant response rating 0 to 10; type: in vivo, Oryza sativa; settings: 0 to 10 scale
Method in brief: as §2

yellow nutsedge = test: Test G preemergence/postemergence greenhouse plant response rating 0 to 100; type: in vivo, Cyperus esculentus; settings: Rate 125 g/ha, 0 to 100 scale
Source text: as §1

wild buckwheat [2] = test: Test B preemergence/postemergence greenhouse plant response rating 0 to 10; type: in vivo, Polygonum convolvulus; settings: 0 to 10 scale
Method in brief: as §2

C#CCOc1cc(-c2nn3c(c2Br)CCCC3)c(F)cc1Cl [Compound 26]
Plant response rating, Peanuts (peanut; POSTEMERGENCE, Rate 125 g/ha): 0 | Plant response rating, Peanuts (peanut; POSTEMERGENCE, Rate 250 g/ha): 0 | Plant response rating, Peanuts (peanut; PREEMERGENCE, Rate 250 g/ha): 0 | Plant response rating, Soybean (soybean; POSTEMERGENCE, Rate 50 g/ha): 8 | Plant response rating, Soybean (soybean; POSTEMERGENCE, Rate 200 g/ha): 9 | Plant response rating, Soybean (soybean; PREEMERGENCE, Rate 50 g/ha): 1 | Plant response rating, Soybean (soybean; Rate 200 g/ha, PREEMERGENCE): 3 | Plant response rating, Wild oat (wild oat; POSTEMERGENCE, Rate 50 g/ha): 5 | Plant response rating, Wild oat (wild oat; POSTEMERGENCE, Rate 200 g/ha): 7 | Plant response rating, Wild oat (wild oat; Rate 200 g/ha, PREEMERGENCE): 6 | Plant response rating, Sugar beet (sugar beet; POSTEMERGENCE, 62 g/ha): 100 | Plant response rating, Sugar beet (sugar beet; POSTEMERGENCE, 250 g/ha): 100 | Plant response rating (0 to 100), Sugar beet (sugar beet; POSTEMERGENCE, Rate 4 g/ha): 100 | Plant response rating, Sugar beet (sugar beet; PREEMERGENCE, 250 g/ha): 100 | Plant response rating (0 to 100), Sugar beet (sugar beet; PREEMERGENCE, Rate 4 g/ha): 0 | Plant response rating (0 to 100), Sugar beet (sugar beet; Rate 16 g/ha, POSTEMERGENCE): 100 | Plant response rating (0 to 100), Sugar beet (sugar beet; Rate 16 g/ha, PREEMERGENCE): 20 | Plant response rating, Sorghum (sorghum; POSTEMERGENCE, 62 g/ha): 50 | Plant response rating, Sorghum (sorghum; POSTEMERGENCE, 250 g/ha): 50 | Plant response rating (0 to 100), Sorghum (sorghum; POSTEMERGENCE, Rate 4 g/ha): 20 | Plant response rating, Sorghum (sorghum; PREEMERGENCE, 250 g/ha): 50 | Plant response rating (0 to 100), Sorghum (sorghum; PREEMERGENCE, Rate 4 g/ha): 0 | Plant response rating (0 to 100), Sorghum (sorghum; Rate 16 g/ha, POSTEMERGENCE): 30 | Plant response rating (0 to 100), Sorghum (sorghum; Rate 16 g/ha, PREEMERGENCE): 20 | Plant response rating (0 to 100), Barnyardgrass (barnyardgrass; Rate 4 g/ha): 100 | Plant response rating (0 to 100), Barnyardgrass (barnyardgrass; Rate 16 g/ha): 100 | Plant response rating, Barnyardgrass (barnyardgrass; 62 g/ha): 100 | Plant response rating, Barnyardgrass (barnyardgrass; 250 g/ha): 100 | Plant response rating, Wheat (wheat; POSTEMERGENCE, Rate 50 g/ha): 4 | Plant response rating, Wheat (wheat; POSTEMERGENCE, Rate 200 g/ha): 5 | Plant response rating, Wheat (wheat; PREEMERGENCE, Rate 50 g/ha): 1 | Plant response rating, Wheat (wheat; Rate 200 g/ha, PREEMERGENCE): 2 | Plant response rating Downy Brome (downy brome; POSTEMERGENCE, 62 g/ha): 50 | Plant response rating Downy Brome (downy brome; POSTEMERGENCE, 250 g/ha): 70 | Plant response rating (0 to 100), Downy Brome (downy brome; POSTEMERGENCE, Rate 4 g/ha): 20 | Plant response rating Downy Brome (downy brome; PREEMERGENCE, 62 g/ha): 0 | Plant response rating Downy Brome (downy brome; PREEMERGENCE, 250 g/ha): 20 | Plant response rating (0 to 100), Downy Brome (downy brome; PREEMERGENCE, Rate 4 g/ha): 0 | Plant response rating (0 to 100), Downy Brome (downy brome; Rate 16 g/ha, POSTEMERGENCE): 40 | Plant response rating (0 to 100), Downy Brome (downy brome; Rate 16 g/ha, PREEMERGENCE): 0 | Plant response rating, Wild buckwheat (wild buckwheat [1]; POSTEMERGENCE, 62 g/ha): 100 | Plant response rating, Wild buckwheat (wild buckwheat [1]; POSTEMERGENCE, 250 g/ha): 100 | Plant response rating (0 to 100), Wild buckwheat (wild buckwheat [1]; POSTEMERGENCE, Rate 4 g/ha): 50 | Plant response rating, Wild buckwheat (wild buckwheat [1]; PREEMERGENCE, 250 g/ha): 100 | Plant response rating (0 to 100), Wild buckwheat (wild buckwheat [1]; PREEMERGENCE, Rate 4 g/ha): 20 | Plant response rating (0 to 100), Wild buckwheat (wild buckwheat [1]; Rate 16 g/ha, POSTEMERGENCE): 80 | Plant response rating (0 to 100), Wild buckwheat (wild buckwheat [1]; Rate 16 g/ha, PREEMERGENCE): 80 | Plant response rating, Lambsquarter (lambsquarters; POSTEMERGENCE, Rate 50 g/ha): 10 | Plant response rating, Lambsquarter (lambsquarters; POSTEMERGENCE, Rate 200 g/ha): 10 | Plant response rating, Lambsquarter (lambsquarters; PREEMERGENCE, Rate 50 g/ha): 10 | Plant response rating, Lambsquarter (lambsquarters; Rate 200 g/ha, PREEMERGENCE): 10 | Plant response rating, Blackgrass (blackgrass; POSTEMERGENCE, 62 g/ha): 40 | Plant response rating, Blackgrass (blackgrass; POSTEMERGENCE, 250 g/ha): 70 | Plant response rating, Blackgrass (blackgrass; PREEMERGENCE, 62 g/ha): 20 | Plant response rating, Blackgrass (blackgrass; PREEMERGENCE, 250 g/ha): 40 | Plant response rating (0 to 100), Blackgrass (blackgrass; PREEMERGENCE, Rate 4 g/ha): 0 | Plant response rating (0 to 100), Blackgrass (blackgrass; Rate 4 g/ha, POSTEMERGENCE): 30 | Plant response rating (0 to 100), Blackgrass (blackgrass; Rate 16 g/ha, POSTEMERGENCE): 40 | Plant response rating (0 to 100), Blackgrass (blackgrass; Rate 16 g/ha, PREEMERGENCE): 0 | Plant response rating, Rice (rice; POSTEMERGENCE, Rate 50 g/ha): 5 | Plant response rating, Rice (rice; POSTEMERGENCE, Rate 200 g/ha): 6 | Plant response rating, Rice (rice; PREEMERGENCE, Rate 50 g/ha): 0 | Plant response rating, Rice (rice; Rate 200 g/ha, PREEMERGENCE): 3 | Plant response rating, Yellow Nutsedge (yellow nutsedge; POSTEMERGENCE): 0 | Plant response rating, Yellow Nutsedge (yellow nutsedge; PREEMERGENCE): 0 | Plant response rating, Wild buckwheat (wild buckwheat [2]; POSTEMERGENCE, Rate 50 g/ha): 10 | Plant response rating, Wild buckwheat (wild buckwheat [2]; POSTEMERGENCE, Rate 200 g/ha): 10 | Plant response rating, Wild buckwheat (wild buckwheat [2]; PREEMERGENCE, Rate 50 g/ha): 7 | Plant response rating, Wild buckwheat (wild buckwheat [2]; Rate 200 g/ha, PREEMERGENCE): 10

From patent publication US6358885B1, “Substituted phenylheterocyclic herbicides” (Mississippi State University, priority 1992, dated 2002)
